MIC data for 6 molecules are collected here from DBAASP.

≈ marks a conversion by molar mass, not a printed value. Some results are limits rather than exact numbers.

Test systems include Candida albicans MDM8; Micrococcus luteus A270; Escherichia coli SBS 363; Bacillus subtilis; Staphylococcus aureus; Escherichia coli K99; Escherichia coli UB1005; Acinetobacter baumannii; Escherichia coli 078; Escherichia coli K88.
Holding throughout (test): ≥ marks a high value that may be exact or a test limit, other limits are often not marked, values filed in µg/mL are converted to µM
The test system of assay [1] is Serratia marcescens ATCC 4112.
The test system of assay [2] is Enterobacter cloacae beta-12.
The test system of assay [3] is Bacillus megaterium ATCC 10778.
Assay [4] deals with Candida tropicalis IOC 4560.
The test system of assay [5] is Bacillus subtilis ATCC 6633.
For assay [6], the system named is Pseudomonas aeruginosa ATCC 27853.
In assay [7] the test system is Staphylococcus aureus ATCC 29213.
Assay [8] relates to Enterococcus faecalis E1478F.
Assay [9] concerns Staphylococcus aureus RN4220.
Assay [10] has as its system Staphylococcus sciuri P254.
The test system of assay [11] is Enterococcus faecalis ATCC 29212.
Assay [12] has as its system Salmonella typhimurium ATCC 7731.
For assay [13], the system named is Staphylococcus aureus ATCC 43300.
Assay [14] relates to Salmonella enterica subsp. enterica serovar Typhimurium ATCC 14028.
Assay [15] relates to Bacillus subtilis CMCC 63501.
Assay [16] concerns Pseudomonas aeruginosa PAO1.
Assay [17] has as its system Salmonella enterica subsp. enterica serovar Pullorum ATCC 7913.
Assay [18] relates to Staphylococcus epidermidis ATCC 12228.
Assay [19] deals with Listeria monocytogenes CGMCC 1.1075.
Assay [20] relates to Staphylococcus aureus ATCC 25923.
Assay [21] concerns Bacillus cereus CGMCC 1.932.
In assay [22] the test system is Escherichia coli IFO 14237.
The subject of assay [23] is Bacillus subtilis IFO 3037.
In assay [24] the test system is Staphylococcus aureus IFO 12732.
The subject of assay [25] is Salmonella enterica subsp. enterica serovar Typhi CMCC 50071.
For assay [26], the system named is Salmonella enterica subsp. enterica serovar Typhimurium C77-31.
Assay [27] has as its system Salmonella enterica subsp. enterica serovar Pullorum C79-13.
The test system of assay [28] is Escherichia coli ATCC 25922.
For assay [29], the system named is Staphylococcus aureus ATCC 6538.
Assay [30] concerns Streptococcus equi subsp. zooepidemicus ATCC 43079.
Assay [31] deals with Streptococcus dysgalactiae subsp. dysgalactiae ATCC 27957.
For assay [32], the system named is Bacillus cereus ATCC 10876.
Assay [33] concerns Streptococcus agalactiae ATCC 27956.

In the case of `CC(C)C[C@H](NC(=O)[C@H](C)NC(=O)CNC(=O)[C@H](CC(C)C)NC(=O)[C@@H](N)Cc1ccccc1)C(=O)N[C@@H](Cc1c[nH]c2ccccc12)C(=O)N[C@@H](CCCN=C(N)N)C(=O)N[C@H](C(=O)N[C@@H](C)C(=O)N[C@@H](CCCCN)C(=O)N[C@@H](CO)C(=O)N[C@H](C(=O)N[C@@H](Cc1ccccc1)C(N)=O)C(C)C)C(C)C` [FLGALWRVAKSVF], the MIC in assay [1] was 0.4 µM (≈ 0.597 µg/mL); in the assay on Candida albicans MDM8, 1.6 µM (≈ 2.39 µg/mL); against Micrococcus luteus A270, 1.6 µM (≈ 2.39 µg/mL); in assay [2], 6.3 µM (≈ 9.4 µg/mL); in assay [3], 0.8 µM (≈ 1.19 µg/mL); in assay [4] it was 1.6 µM (≈ 2.39 µg/mL). Further, the minimum inhibitory concentration (MIC) in the assay with Escherichia coli SBS 363 was 1.6 µM (≈ 2.39 µg/mL); in assay [5], 0.8 µM (≈ 1.19 µg/mL); in [6], 6.3 µM (≈ 9.4 µg/mL); in assay [7] it was 1.6 µM (≈ 2.39 µg/mL).

In the case of `CC[C@H](C)[C@H](NC(=O)[C@H](CC(C)C)NC(=O)[C@@H]1CCCN1C(=O)[C@H](CC(C)C)NC(=O)[C@@H](N)Cc1ccccc1)C(=O)NCC(=O)NCC(=O)N[C@@H](CC(C)C)C(=O)N[C@@H](CC(C)C)C(=O)N[C@@H](CO)C(=O)N[C@@H](CCCCN)C(=O)N[C@@H](CC(C)C)C(=O)N[C@@H](CC(C)C)C(N)=O` [FLPLIGGLLSKLL], the MIC was 2.83 µM (≈ 3.91 µg/mL) against Bacillus subtilis; 2.83 µM (≈ 3.91 µg/mL) in [8]; 45.2 µM (≈ 62.5 µg/mL) in the assay on Staphylococcus aureus; not below 45.2 µM in assay [9]; not below 45.2 µM in [10].

For `CC(C)[C@H](NC(=O)[C@H](CCCN=C(N)N)NC(=O)[C@H](Cc1c[nH]c2ccccc12)NC(=O)[C@H](CCCN=C(N)N)NC(=O)[C@H](Cc1c[nH]c2ccccc12)NC(=O)[C@H](Cc1c[nH]c2ccccc12)NC(=O)[C@H](Cc1c[nH]c2ccccc12)NC(=O)[C@H](CCCN=C(N)N)NC(=O)[C@H](Cc1c[nH]c2ccccc12)NC(=O)[C@H](CCCN=C(N)N)NC(=O)CN)C(N)=O` [GRWRWWWRWRV], the MIC in assay [11] was 2 µM (≈ 3.46 µg/mL); against Escherichia coli K99 it was 2 µM (≈ 3.46 µg/mL); in assay [12], 8 µM (≈ 13.8 µg/mL); with Escherichia coli UB1005, 2 µM (≈ 3.46 µg/mL); in assay [13] it was 4 µM (≈ 6.92 µg/mL); in assay [14] it was 8 µM (≈ 13.8 µg/mL). The MIC came out at 1 µM (≈ 1.73 µg/mL) in the assay with Acinetobacter baumannii; 4 µM (≈ 6.92 µg/mL) in assay [15]; 4 µM (≈ 6.92 µg/mL) in [16]; 4 µM (≈ 6.92 µg/mL) in assay [17]; 2 µM (≈ 3.46 µg/mL) in assay [18]; 1 µM (≈ 1.73 µg/mL) in [19]. Moreover, the MIC in assay [20] is 4 µM (≈ 6.92 µg/mL); against Escherichia coli 078, 4 µM (≈ 6.92 µg/mL); in assay [21], 8 µM (≈ 13.8 µg/mL); in assay [6], 8 µM (≈ 13.8 µg/mL); in the assay on Escherichia coli K88, 1 µM (≈ 1.73 µg/mL).

As for `CC[C@H](C)[C@H](N)C(=O)N[C@H](C(=O)NCC(=O)N[C@@H](CC(C)C)C(=O)N[C@H](C(=O)N[C@@H](CO)C(=O)N[C@@H](CCCCN)C(=O)NCC(=O)N[C@H](C(=O)N[C@H]1CSSC[C@@H](C(=O)N[C@@H](CCCCN)C(=O)N[C@@H](CCCCN)C(=O)N[C@H](C(=O)N[C@@H](CC(C)C)C(=O)N[C@@H](CCCCN)C(=O)N[C@@H](CCC(N)=O)C(N)=O)C(C)C)NC(=O)[C@H](C(C)C)NC(=O)[C@H]([C@@H](C)O)NC(=O)[C@H](CCCCN)NC(=O)[C@H](C(C)C)NC(=O)[C@H](CC(C)C)NC(=O)[C@H](C(C)C)NC1=O)[C@@H](C)O)C(C)C)[C@@H](C)CC` [IIGLVSKGTCVLVKTVCKKVLKQ], the MIC in assay [22] is 25 µM (≈ 61.4 µg/mL); in assay [23], not below 50 µM; in [24] it was 25 µM (≈ 61.4 µg/mL).

`NCCCC[C@H](NC(=O)[C@H](Cc1c[nH]c2ccccc12)NC(=O)[C@H](CCCN=C(N)N)NC(=O)[C@H](CCCN=C(N)N)NC(=O)[C@H](Cc1c[nH]c2ccccc12)NC(=O)[C@H](CCC(N)=O)NC(=O)[C@H](Cc1c[nH]c2ccccc12)NC(=O)[C@H](CCCN=C(N)N)NC(=O)[C@H](CCCN=C(N)N)NC(=O)[C@H](Cc1c[nH]c2ccccc12)NC(=O)[C@@H](N)CCCCN)C(N)=O` [KWRRWQWRRWK]: the MIC in the assay on Escherichia coli UB1005 was 8 µM (≈ 14.2 µg/mL); in assay [14] it was 32 µM (≈ 56.7 µg/mL); in [25], not below 128 µM; in assay [18], 8 µM (≈ 14.2 µg/mL); in assay [20], 32 µM (≈ 56.7 µg/mL); in [26], 16 µM (≈ 28.3 µg/mL). Further, the minimum inhibitory concentration (MIC) was 8 µM (≈ 14.2 µg/mL) in assay [7] and 16 µM (≈ 28.3 µg/mL) in [27].

As for `CC[C@H](C)[C@H](NC(=O)CNC(=O)[C@H](CCCN=C(N)N)NC(=O)[C@H](CCCCN)NC(=O)[C@H](CO)NC(=O)[C@H](CCCN=C(N)N)NC(=O)[C@H](CCCN=C(N)N)NC(=O)[C@@H](N)C(C)C)C(=O)N[C@@H](CCCCN)C(=O)N[C@H](C(=O)N1CCC[C@H]1C(=O)N[C@@H](CO)C(=O)N[C@@H](Cc1ccccc1)C(=O)N[C@H](C(=O)N[C@@H](CCCCN)C(=O)N[C@@H](CCCCN)C(=O)N[C@H](C(=O)N[C@@H](CC(C)C)C(=O)N[C@@H](CCCCN)C(=O)N[C@@H](CC(=O)O)C(=O)N[C@H](C(=O)N[C@H](C(=O)N[C@@H](CO)C(=O)N[C@@H](CCC(=O)O)C(=O)N[C@@H](CO)C(=O)N[C@H](C(=O)N[C@@H](CO)C(=O)O)[C@@H](C)CC)C(C)C)C(C)C)C(C)C)C(C)C)C(C)C` [VRRSKRGIKVPSFVKKVLKDVVSESIS], the MIC in assay [11] is more than 10.5 µM; in assay [28], 1.64 µM (≈ 5 µg/mL); in assay [29], more than 10.5 µM; in [14] it was more than 10.5 µM; in [30] it was 13.2 µM (≈ 40.2 µg/mL); in [31] it was 13.2 µM (≈ 40.2 µg/mL). Moreover, the MIC in [32] was 10.5 µM (≈ 32 µg/mL); in [33], 13.2 µM (≈ 40.2 µg/mL); in assay [6], more than 10.5 µM.
